Assay [1] relates to HIF2α-regulated expression of the endogenous target gene hEGLN3 in 786-O cells. Put plainly: Cellular iScript assay for HIF2α (quantitative RT-PCR of hEGLN3). Particulars: Homo sapiens, 786-0, 48 hours incubation. The class given is cell-based, human. As to the method: (§1) Stock solutions of compounds were prepared at a concentration of 10 mM in DMSO and stored at 4° C. Where necessary to afford a full dose-response curve, the stock solutions were pre-diluted in DMSO to 1,000-fold the desired reduced start concentration. On the day after cell seeding, eleven 2-fold serial dilutions of each compound were dispensed directly into the cell assay plates using either HP 300D non-contact Digital Dispenser (TECAN) or a ATS100 acoustic dispenser (EDC Biosystems).
Compound-mediated modulation of the HIF2α-regulated expression of the endogenous target gene hEGLN3 (OMIM: 606426), as well as beta-actin (OMIM: 102630) as a house-keeping control, was assess in 786-O cells (RRID CVCL_1051) using a quantitative RT-PCR approach. In short, 786-O cells were maintained in growth medium composed of DMEM (GIBCO #11995-065), 2 mM L-Glutamine (BioConcept #5-10K50-H), 1× Penicillin/Streptomycin (BioConcept #4-01F00-H), 10% fetal calf serum (Gibco #A31608-01), 1 mM Sodium pyruvate (BioConcept #5-60F00-H). Cells were seeded at 1,000 cells/20 μL/well into white-wall, clear-bottom 384-well plates (Greiner #781098) and incubated over night at 37° C. prior to addition of serial compound dilutions as described above. Following incubation for 48 hours at 37° C., medium supernatant was discarded and the plate blotted dry by inverting on a tissue. The same procedure was repeated following one wash with 20 μL phosphate-buffered saline. Following addition of 25 μL/well iScript sample preparation reagent (BioRad #170-8899) using a 16-channel Matrix pipette, the plate was incubated for 2 min at room temperature. 20 μL lysate supernatant was then removed and transferred to a new 384 well plate (Costar #3656) and diluted 1:3 by adding 5 μL of the lysate to 10 μL H2O using a Bravo liquid handler (Agilent). 2 μL of the diluted lysate was added to the 8 μL of a mastermix containing 5 μL iTaq Universal Probes One-step kit (BioRad #172-5141), 0.25 μL iScript reverse transcription supermix (BioRad #1708840), 0.25 μL 40×HEX-ZEN-labeled TaqMan probe for beta-actin (IDT #Hs.PT.39a.22214847: Probe 5′ HEX-TCA TCC ATG/ZEN/GTG AGC TGG CGG-3′ (SEQ ID NO: 2) Iowa Black FQ, Primer 1: ACA GAG CCT CGC CTT TG (SEQ ID NO: 3); Primer 2: CCT TGC ACA TGC CGG (SEQ ID NO: 4) AG), 0.25 μL, 40×FAM-ZEN-labeled TaqMan probe for hEGLN3 (IDT #Hs.PT.58.189348: Probe 5′ 6-FAM-TTT GGC TTC/ZEN/TGC CCT TTC TTC AGC-3′ (SEQ ID NO: 5) Iowa Black FQ, Primer 1: CACGGTCAGTCTTCAGTGAG (SEQ ID NO: 6); Primer 2: CGCAACCAGATATGCTATGACT (SEQ ID NO: 7)), 2.25 μL RNase-free water, prelaid in a 384 well plate (ABI #4309849) using a 16-channel Matrix pipette. The plate was sealed with a PCR-compatible optical film (MicroAmp, ABI #4360954) and centrifuged (1500 rpm, 5 min, +4° C.) to collect all reagents in the bottom of the well and to remove bubbles. The plate content was amplified on a 7900HT thermal cycler (ABI) using the following conditions: Step 1: 50° C. for 10 min, Step 2: 95° C. for 3 min, Step 3 (40×): 95° C. for 15 s, 60° C. for 1 min. ROX (reaction volume 10 μL) was used as a passive reference. Data were collected with manual adjustment of the Ct threshold (beta-actin: 0.046, hEGLN3: 0.06) and were analyzed using the 2^(−ΔΔCt) method. Thus, for each sample, the following values were calculated: 2^(−Ct)a for beta-actin, 2^(−Ct)e for EGLN3, and 2^(−ΔCt) calculated as (2^(−Ct)e/2^(−Ct)a). The mean 2^(−ΔCt) as well as the corresponding standard deviation was calculated for each sample. Taking the DMSO-treated sample as a reference, the 2^(−ΔΔCt) for each sample was calculated as follows: 2^(−ΔΔCt)=2^(−ΔCt)sample/(2^(−ΔCt)DMSO). After calculating differential expression as 2^(−ΔΔCt) for each sample, it was then expressed as a percentage (×100) to obtain a dose-response curve in % of DMSO control and IC50s were calculated using a four-parametric fit model.

Assay [2] relates to HIF2α-dependent transcription in 786-O-HRE-Luc cells. Put plainly: In vitro cellular hypoxia response element (HRE) reporter gene assay (RGA) for HIF2α. The assay is classed as cell-based, human. The note with it: Homo sapiens, 24 hours incubation. As to the method: as §1
The ability of compounds to inhibit HIF2α- and HIF1α-dependent transcription was assessed in 786-O-HRE-Luc and RCC4-HRE-Luc cells, respectively. The putative unselective inhibition of firefly luciferase activity or expression was assessed in 786-O-UB6-Luc and RCC4-UB6-Luc cells, respectively. The reporter lines were generated as follows: 786-O (RRID: CVCL_1051) and RCC4 (RRID: CVCL_0498) clear cell renal carcinoma cell lines were obtained from ATCC and Celeste Simon (University of Pennsylvania), respectively. Either cell line was transduced with a lentiviral vector in which the expression of a PEST-destabilized version of firefly-luciferase is under the control of either a minimal promoter coupled to four copies of a minimal hypoxia response element (HRE) sequence (pLenti 4×HRE Luc PEST), or a promoter from the house-keeping UBC gene (pLenti UB6 Luc PEST). In short, for the construction of the pLenti 4×HRE Luc PEST vector, 4×HRE DNA oligonucleotides were synthesized, annealed and cloned into pGL4.27 plasmid vector (Promega) predigested with NheI and HindIII restriction enzymes. The sequence of the two DNA oligonucleotides was as follows: NheI 4×HRE HindIII FWD: […] (SEQ ID NO: 8); NheI 4×HRE HindIII REV […] (SEQ ID NO: 9). The 4×HRE Luc PEST fragment was then PCRed from this plasmid with restriction enzyme sites NheI and XhoI at the two ends, and inserted into pLenti6/BLOCK iT DEST (Thermo Fisher Scientific) predigested with NheI and XhoI restriction enzymes. For the construction of the pLenti UB6 Luc PEST vector, the Luc PEST sequence was PCRed from pGL4.27 (Promega) using EcoRV and XhoI restriction enzymes at the two ends, and inserted into pLenti6/UBC/V5/DEST (Thermo Fisher Scientific) predigested with the same enzymes. 786-O and RCC4 cells (300,000 per well of a 6 well plate) were infected in the presence of 10 μg/ml polybrene with lentivirus harvested two days after transfection of HEK293-FT (ThermoFisher Scientific #R70007) cells (80% confluent in a 100 cm^2 dish) with a mix of 1.5 ml OptiMEM (ThermoFisher Scientific #31985062) containing 3 μg of the desired plasmids and 9 μl of ViralPower Packaging mix (ThermoFisher Scientific #K497500), and 1.5 ml OptiMEM containing 36 μl Lipofectamine 2000 (ThermoFisher Scientific #11668019). Successfully infected cells were selected using blasticidin (Gibco #A11139-03) at a final concentration of 5 μg/ml. The resulting stable cell lines were named 786-O pLenti 4×HRE Luc PEST (short: 786-O-HRE-Luc), 786-O pLenti UB6 Luc PEST (short: 786-O-UB6-Luc), RCC4 pLenti 4×HRE Luc PEST (short: RCC4-HRE-Luc) and RCC4 pLenti UB6 Luc PEST (short: RCC4-UB6-Luc). All 4 cell lines were maintained in growth medium composed of DMEM (GIBCO #11995-065), 2 mM L-Glutamine (BioConcept #5-10K50-H), 10% fetal calf serum (Gibco #A31608-01), 1× Penicillin/Streptomycin (BioConcept #4-01F00-H), 1 mM Sodium pyruvate (BioConcept #5-60F00-H) and 5 μg/ml blasticidin (Gibco #A11139-03) at 37° C. in a humidified 5% CO2 incubator.
For the reporter gene assay, the individual cell lines were seeded at 2,500 cells/20 μL/well into white-wall, clear-bottom 384-well plates (Greiner #781098) and incubated over night at 37° C. prior to addition of serial compound dilutions as described above. […]
(In general: Reporter assays use an easily measured gene product as a stand-in for the process of interest.)

In assay [3] the target is HIF2α PAS-B domain (236-350, biotinylated on the N-terminus) (Homo sapiens (Human), UniProt Q99814).
Method: The assay buffer contained 50 mM Tris-HCl pH7 (Sigma), 20 mM NaCl (Fluka), 0.02% BSA (Sigma), 0.005% Triton X-100 (Pierce) and 1 mM DTT (Fluka). After a 30 min incubation period, 5 μL Streptavidin PVT SPA Beads (Perkin Elmer) at 1.2 mg/mL, diluted in the buffer, were added.

SMILES strings stand for the structures.

Sequence of HIF2α PAS-B domain (236-350, biotinylated on the N-terminus) (Q99814 236-350): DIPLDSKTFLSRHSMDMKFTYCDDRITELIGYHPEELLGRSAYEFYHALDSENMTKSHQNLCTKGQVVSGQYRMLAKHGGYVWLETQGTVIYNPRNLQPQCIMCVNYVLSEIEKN

As a reminder, the IC50 is the point on the concentration scale where inhibition reaches its midpoint. A low value points to inhibition by little substance. Regarding `N#CC1=CN2C[C@@]3(CCSc4c(F)cccc43)N=C2C(OC(F)F)=C1` [Example 66, (S)-8-(difluoromethoxy)-8′-fluoro-3H-spiro[imidazo[1,2-a]pyridine-2,4′-thiochroman]-6-carbonitrile], the IC50 in assay [1] is 47 nM; in assay [2], 385 nM; in assay [3], at most 8 nM.
Regarding `Fc1cccc2c1SCC[C@@]21CN2C=C(C(F)(F)F)C=C(OC(F)F)C2=N1` [Example 65, (S)-8-(difluoromethoxy)-8′-fluoro-6-(trifluoromethyl)-3H-spiro[imidazo[1,2-a]pyridine-2,4′-thiochroman]], the figures for the 50% inhibitory concentration (IC50) in assay [1], in assay [2] and in assay [3] were 30 nM, 114 nM and at most 3 nM, respectively.
Consider `CSc1ccc2c(c1F)OCC[C@@]21CN2C=C(C(F)(F)F)C=C(OC(F)F)C2=N1` [Example 99, (S)-8′-(difluoromethoxy)-8-fluoro-7-(methylthio)-6′-(trifluoromethyl)-3′H-spiro[chromane-4,2′-imidazo[1,2-a]pyridine]], for which the half-maximal inhibitory concentration (IC50) in assay [1] came to 71 nM; in assay [2], 286 nM; in assay [3], 10 nM.
On to `FC(F)OC1=CC(C(F)(F)F)=CN2C[C@@]3(CCCc4c3ccnc4Cl)N=C12` [Example 36, (S)-1′-chloro-8-(difluoromethoxy)-6-(trifluoromethyl)-7′,8′-dihydro-3H,6′H-spiro[imidazo[1,2-a]pyridine-2,5′-isoquinoline]], for which the IC50 worked out at 73 nM in assay [1], 147 nM in assay [2] and 6 nM in assay [3].
With `N#Cc1ccc2c(c1F)C(F)(F)CC[C@@]21CN2C=C(C(F)(F)F)C=C(OC(F)F)C2=N1` [Example 15, (S)-8-(difluoromethoxy)-4′,4′,5′-trifluoro-6-(trifluoromethyl)-3′,4′-dihydro-2′H,3H-spiro[imidazo[1,2-a]pyridine-2,1′-naphthalene]-6′-carbonitrile], the IC50 came out at 128 nM in assay [1], 392 nM in assay [2] and 16 nM in assay [3].
In the same order, the values of `FC(F)OC1=CC(C(F)(F)F)=CN2C[C@@]3(CCOc4cc(Cl)ccc43)N=C12` [Example 41, (S)-7-chloro-8′-(difluoromethoxy)-6′-(trifluoromethyl)-3′H-spiro[chroman-4,2′-imidazo[1,2-a]pyridine]] are 54 nM, 283 nM and 11 nM.
As for `COc1ccc2c(c1F)CCC[C@@]21CN2C=C(C(F)(F)F)C=C(OC(F)F)C2=N1` [Example 84, (S)-8-(difluoromethoxy)-5′-fluoro-6′-methoxy-6-(trifluoromethyl)-3′,4′-dihydro-2′H,3H-spiro[imidazo[1,2-a]pyridine-2,1′-naphthalene]], the values for the half-maximal inhibitory concentration (IC50) in assay [1], in assay [2] and in assay [3] were 69 nM, 184 nM and 3 nM, respectively.
The matching figures for `FC(F)OC1=CC(C(F)(F)F)=CN2C[C@@]3(CCOc4cc(Br)ccc43)N=C12` [Example 50, (S)-7-bromo-8′-(difluoromethoxy)-6′-(trifluoromethyl)-3′H-spiro[chroman-4,2′-imidazo[1,2-a]pyridine]]: 61 nM, 153 nM and at most 10 nM.
As for `FCOC1=CC(C(F)(F)F)=CN2C[C@@]3(CCOc4c3ccc(Br)c4F)N=C12` [Example 42, (S)-7-bromo-8-fluoro-8′-(fluoromethoxy)-6′-(trifluoromethyl)-3′H-spiro[chroman-4,2′-imidazo[1,2-a]pyridine]], the figures for the concentration for half-maximal inhibition (IC50) in assay [1], in assay [2] and in assay [3] were 72 nM, 96 nM and 8 nM, respectively.
In the same order, the values of `COC1=CC(C(F)(F)F)=CN2C[C@@]3(CCCc4c3ccc(Br)c4F)N=C12` [Example 80, (S)-6′-bromo-5′-fluoro-8-methoxy-6-(trifluoromethyl)-3′,4′-dihydro-2′H,3H-spiro[imidazo[1,2-a]pyridine-2,1′-naphthalene]] are 106 nM, 2040 nM and 11 nM.

Values taken from patent US12226405B2, “Compounds and compositions for inhibiting the activity of HIF2-alpha and their methods of use” (Novartis AG, priority 2020, dated 2025).
